{"source": "paper PMC3020970", "about": "“K70Q Adds High-Level Tenofovir Resistance to “Q151M Complex” HIV Reverse Transcriptase through the Enhanced Discrimination Mechanism” (PLoS ONE, 2011)", "format_in_all_cases": "cell-based", "key": {"HIV-1 NL4-3 strain (WT)": {"tested_on": "HIV-1 NL4-3 strain (WT)", "experiment": "microbe, parasite or virus in culture", "procedure": "(§1) Susceptibilities to various RT inhibitors were determined using the MAGIC-5 cells which are HeLa cells stably transfected with a β-galactosidase gene under the control of an HIV long terminal repeat promoter, and with vectors that express the CD4 receptor and the CCR5 co-receptor under the control of the CMV promoter as described previously. Briefly, MAGIC-5 cells were infected with diluted virus stock (100 blue forming units) in the presence of increasing concentrations of RT inhibitors, cultured for 48 h, fixed, and stained with X-Gal (5-bromo-4-chloro-3-indolyl-β-D-galacto-pyranoside). The stained cells were counted under a light microscope."}, "HIV-1 WT": {"tested_on": "HIV-1 WT", "experiment": "Single-cycle drug susceptibility assay (MAGIC-5 cells), recombinant WT clone", "conditions": "Human immunodeficiency virus 1, Table S2", "procedure": "(§2) The NL4-3-based molecular clone was constructed by replacing the pol-coding region with the HIV-1 BH10 strain. […] Each molecular clone was transfected into COS-7 cells. Cells were grown for 48 h, and culture supernatants were harvested and stored at −80°C until use.\nas §1"}, "HIV-1 K70E": {"tested_on": "HIV-1 K70E", "experiment": "Single-cycle drug susceptibility assay (MAGIC-5 cells)", "procedure": "as §2, §1"}, "HIV-1 K70G": {"tested_on": "HIV-1 K70G", "experiment": "Single-cycle drug susceptibility assay (MAGIC-5 cells)", "procedure": "as §2, §1"}, "HIV-1 K70N": {"tested_on": "HIV-1 K70N", "experiment": "Single-cycle drug susceptibility assay (MAGIC-5 cells)", "procedure": "as §2, §1"}, "HIV-1 K70Q": {"tested_on": "HIV-1 K70Q", "experiment": "Single-cycle drug susceptibility assay (MAGIC-5 cells)", "conditions": "Human immunodeficiency virus 1, MAGIC-5; K70Q", "procedure": "as §2, §1"}, "HIV-1 K70R": {"tested_on": "HIV-1 K70R", "experiment": "Single-cycle drug susceptibility assay (MAGIC-5 cells)", "procedure": "as §2, §1"}, "HIV-1 K70T": {"tested_on": "HIV-1 K70T", "experiment": "Single-cycle drug susceptibility assay (MAGIC-5 cells)", "procedure": "as §2, §1"}, "HIV-1 Q151Mc/K70E": {"tested_on": "HIV-1 Q151Mc/K70E", "experiment": "Single-cycle drug susceptibility assay (MAGIC-5 cells)", "procedure": "as §2, §1"}, "HIV-1 Q151Mc/K70G": {"tested_on": "HIV-1 Q151Mc/K70G", "experiment": "Single-cycle drug susceptibility assay (MAGIC-5 cells)", "procedure": "as §2, §1"}, "HIV-1 Q151Mc/K70N": {"tested_on": "HIV-1 Q151Mc/K70N", "experiment": "Single-cycle drug susceptibility assay (MAGIC-5 cells)", "procedure": "as §2, §1"}, "HIV-1 Q151Mc/K70Q": {"tested_on": "HIV-1 Q151Mc/K70Q", "experiment": "Single-cycle drug susceptibility assay (MAGIC-5 cells)", "procedure": "as §2, §1"}, "HIV-1 Q151Mc/K70R": {"tested_on": "HIV-1 Q151Mc/K70R", "experiment": "Single-cycle drug susceptibility assay (MAGIC-5 cells)", "procedure": "as §2, §1"}, "HIV-1 Q151Mc/K70T": {"tested_on": "HIV-1 Q151Mc/K70T", "experiment": "Single-cycle drug susceptibility assay (MAGIC-5 cells)", "procedure": "as §2, §1"}, "HIV-1 Q151Mc": {"tested_on": "HIV-1 Q151Mc", "experiment": "Single-cycle drug susceptibility assay (MAGIC-5 cells)", "conditions": "Human immunodeficiency virus 1, MAGIC-5", "procedure": "as §2, §1"}, "[1]": {"tested_on": "HIV-1 clinical isolate 1 (Q151Mc-containing)", "experiment": "Single-cycle drug susceptibility assay (MAGIC-5 cells), clinical isolate 1", "conditions": "Human immunodeficiency virus 1; clinical isolate 1, MAGIC-5 cells", "procedure": "(§3) HIV was isolated from fresh plasma immediately after collection of clinical samples from study participants at the outpatient clinic of the AIDS Clinical Center (ACC), International Medical Center of Japan. The Institutional Review Board approved this study (IMCJ-H13-80) and a written consent was obtained from all participants.\nas §1"}, "[2]": {"tested_on": "HIV-1 clinical isolate 2 (Q151Mc + K70Q)", "experiment": "Single-cycle drug susceptibility assay (MAGIC-5 cells), clinical isolate 2", "conditions": "Human immunodeficiency virus 1; clinical isolate 2, MAGIC-5 cells", "procedure": "as §3, §1"}, "[3]": {"conditions": "Human immunodeficiency virus 1, NL43, WT, MAGIC-5 cells, Table S1, read-out: EC50"}, "[4]": {"conditions": "Human immunodeficiency virus 1, NL43, MAGIC-5"}}, "note": "Read-outs that look alike come from different tables or passages of the source.", "data": [{"smiles": "Nc1ccn([C@@H]2CS[C@H](CO)O2)c(=O)n1", "note": "[3TC, lamivudine]", "values": [{"measurement": "EC50", "setting": "HIV-1 NL4-3 strain (WT); [3]", "value": "1.4 ± 0.15", "unit": "µM"}, {"measurement": "EC50", "setting": "HIV-1 WT", "value": "1.4 ± 0.16", "unit": "µM"}, {"measurement": "EC50", "setting": "HIV-1 K70E; Human immunodeficiency virus 1, MAGIC-5, K70E", "value": "16 ± 2.1", "unit": "µM"}, {"measurement": "Fold increase in EC50 compared to HIV-1 WT", "setting": "HIV-1 K70E; K70E vs WT", "value": "(11) fold"}, {"measurement": "EC50", "setting": "HIV-1 K70G; Human immunodeficiency virus 1, MAGIC-5, K70G", "value": "26 ± 0.58", "unit": "µM"}, {"measurement": "Fold increase in EC50 compared to HIV-1 WT", "setting": "HIV-1 K70G; K70G vs WT", "value": "(19) fold"}, {"measurement": "EC50", "setting": "HIV-1 K70N; Human immunodeficiency virus 1, MAGIC-5, K70N", "value": "2.2 ± 0.25", "unit": "µM"}, {"measurement": "Fold increase in EC50 compared to HIV-1 WT", "setting": "HIV-1 K70N; K70N vs WT", "value": "(1.6) fold"}, {"measurement": "EC50", "setting": "HIV-1 K70Q", "value": "4.6 ± 0.53", "unit": "µM"}, {"measurement": "EC50", "setting": "HIV-1 K70R; Human immunodeficiency virus 1, MAGIC-5, K70R", "value": "2.5 ± 0.46", "unit": "µM"}, {"measurement": "Fold increase in EC50 compared to HIV-1 WT", "setting": "HIV-1 K70R; K70R vs WT", "value": "(1.8) fold"}, {"measurement": "EC50", "setting": "HIV-1 K70T; Human immunodeficiency virus 1, MAGIC-5, K70T", "value": "4.3 ± 0.29", "unit": "µM"}, {"measurement": "Fold increase in EC50 compared to HIV-1 WT", "setting": "HIV-1 K70T; K70T vs WT", "value": "(3.1) fold"}, {"measurement": "EC50", "setting": "HIV-1 Q151Mc/K70E; Human immunodeficiency virus 1, MAGIC-5, Q151Mc/K70E", "value": "11 ± 1.4", "unit": "µM"}, {"measurement": "Fold increase in EC50 compared to HIV-1 Q151Mc", "setting": "HIV-1 Q151Mc/K70E; Q151Mc/K70E vs Q151Mc", "value": "(0.4) fold"}, {"measurement": "EC50", "setting": "HIV-1 Q151Mc/K70G; Human immunodeficiency virus 1, MAGIC-5, Q151Mc/K70G", "value": "46 ± 2.5", "unit": "µM"}, {"measurement": "Fold increase in EC50 compared to HIV-1 Q151Mc", "setting": "HIV-1 Q151Mc/K70G; Q151Mc/K70G vs Q151Mc", "value": "(1.6) fold"}, {"measurement": "EC50", "setting": "HIV-1 Q151Mc/K70N; Human immunodeficiency virus 1, MAGIC-5, Q151Mc/K70N", "value": "15 ± 1.7", "unit": "µM"}, {"measurement": "Fold increase in EC50 compared to HIV-1 Q151Mc", "setting": "HIV-1 Q151Mc/K70N; Q151Mc/K70N vs Q151Mc", "value": "(0.5) fold"}, {"measurement": "EC50", "setting": "HIV-1 Q151Mc/K70Q; Human immunodeficiency virus 1, MAGIC-5, Q151Mc/K70Q", "value": "81 ± 0.08", "unit": "µM"}, {"measurement": "Fold increase in EC50 compared to HIV-1 Q151Mc", "setting": "HIV-1 Q151Mc/K70Q; Q151Mc/K70Q vs Q151Mc", "value": "(2.8) fold"}, {"measurement": "EC50", "setting": "HIV-1 Q151Mc/K70R; Human immunodeficiency virus 1, MAGIC-5, Q151Mc/K70R", "value": "16 ± 1.5", "unit": "µM"}, {"measurement": "Fold increase in EC50 compared to HIV-1 Q151Mc", "setting": "HIV-1 Q151Mc/K70R; Q151Mc/K70R vs Q151Mc", "value": "(0.6) fold"}, {"measurement": "EC50", "setting": "HIV-1 Q151Mc/K70T; Human immunodeficiency virus 1, MAGIC-5, Q151Mc/K70T", "value": "12 ± 2.5", "unit": "µM"}, {"measurement": "Fold increase in EC50 compared to HIV-1 Q151Mc", "setting": "HIV-1 Q151Mc/K70T; Q151Mc/K70T vs Q151Mc", "value": "(0.4) fold"}, {"measurement": "EC50", "setting": "HIV-1 Q151Mc", "value": "29 ± 3.2", "unit": "µM"}]}, {"smiles": "Cc1cn([C@H]2C[C@H](N=[N+]=[N-])[C@@H](CO)O2)c(=O)[nH]c1=O", "note": "[AZT, zidovudine]", "values": [{"measurement": "EC50", "setting": "HIV-1 NL4-3 strain (WT); [4]", "value": "0.023 ± 0.002", "unit": "µM"}]}, {"smiles": "O=C1Nc2ccc(Cl)cc2[C@@](C#CC2CC2)(C(F)(F)F)O1", "note": "[EFV, efavirenz]", "values": [{"measurement": "EC50", "setting": "HIV-1 NL4-3 strain (WT); [3]", "value": "0.002 ± 0.0001", "unit": "µM"}, {"measurement": "EC50", "setting": "[1]", "value": "> 1", "unit": "µM"}, {"measurement": "EC50", "setting": "[2]", "value": "> 1", "unit": "µM"}]}, {"smiles": "Nc1nc(=O)n([C@@H]2CS[C@H](CO)O2)cc1F", "note": "[FTC, emtricitabine]", "values": [{"measurement": "EC50", "setting": "HIV-1 NL4-3 strain (WT); [4]", "value": "0.4 ± 0.03", "unit": "µM"}, {"measurement": "EC50", "setting": "[1]", "value": "3.5 ± 0.12", "unit": "µM"}, {"measurement": "EC50", "setting": "[2]", "value": "2.1 ± 0.17", "unit": "µM"}]}]}
